Assay results as given in US10798941B2, “Microbiocidal oxadiazole derivatives” (SYNGENTA PARTICIPATIONS AG, priority 2016, dated 2020).

Tests used:
Phakopsora pachyrhizi = Phakopsora pachyrhizi / soybean / leaf disc preventative (Asian soybean rust); format: in vivo; conditions: foliar, 288 h, 200 ppm in the applied formulation, soybean leaf disks, inoculated one day after application, assessed 12 to 14 days after application, vs untreated, read-out: disease control
Method: (§1) Leaf disks or leaf segments of various plant species are cut from plants grown in a greenhouse. The cut leaf disks or segments are placed in multiwell plates (24-well format) onto water agar. The leaf disks are sprayed with a test solution before (preventative) or after (curative) inoculation. Compounds to be tested are prepared as DMSO solutions (max. 10 mg/ml) which are diluted to the appropriate concentration with 0.025% Tween20 just before spraying. The inoculated leaf disks or segments are incubated under defined conditions (temperature, relative humidity, light, etc.) according to the respective test system. A single evaluation of disease level is carried out 3 to 14 days after inoculation, depending on the pathosystem. Percent disease control relative to the untreated check leaf disks or segments is then calculated.
Soybean leaf disks are placed on water agar in multiwell plates (24-well format) and sprayed with the formulated test compound diluted in water. One day after application leaf discs are inoculated by spraying a spore suspension on the lower leaf surface. After an incubation period in a climate cabinet of 24-36 hours in darkness at 20° C. and 75% rh leaf disc are kept at 20° C. with 12 h light/day and 75% rh. The activity of a compound is assessed as percent disease control compared to untreated when an appropriate level of disease damage appears in untreated check leaf disks (12 to 14 days after application).
(§2) The following compounds at 200 ppm in the applied formulation give at least 80% disease control in this test when compared to untreated control leaf disks under the same conditions, which show extensive disease development.

[1] = test system: Glomerella Lagenarium (Colletotrichum Lagenarium); assay: Glomerella lagenarium (Colletotrichum lagenarium) liquid culture / cucumber / preventative (anthracnose); format: cell-based; conditions: Colletotrichum orbiculare; 20 ppm in the applied formulation; liquid culture in PDB, 24° C., inhibition of growth measured photometrically 3 to 4 days after application, vs untreated; read-out: disease control
Procedure, shortened: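 Conidia from cryogenic storage were mixed into potato dextrose broth. This was added to compound diluted from DMSO into 0.025% Tween20, tested at 20 ppm. Plates were incubated in the dark at 24 °C and 96% relative humidity, and growth was read photometrically after 2–7 days as % activity versus untreated check.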

[2] = test system: Puccinia recondita f. Sp. Tritici; assay: Puccinia recondita f. sp. tritici / wheat / leaf disc curative (brown rust); format: in vivo; conditions: foliar, 144 h, 200 ppm in the applied formulation, wheat leaf segments cv. Kanzler, applied 1 day after inoculation, assessed 6 to 8 days after application, vs untreated, read-out: disease control
Method: as §1
Wheat leaf segments cv. Kanzler are placed on agar in multiwell plates (24-well format). The leaf segments are then inoculated with a spore suspension of the fungus. Plates were stored in darkness at 19° C. and 75% relative humidity. The formulated test compound diluted in water was applied 1 day after inoculation. The leaf segments were incubated at 19° C. and 75% relative humidity under a light regime of 12 hours light/12 hours darkness in a climate cabinet and the activity of a compound was assessed as percent disease control compared to untreated when an appropriate level of disease damage appears in untreated check leaf segments (6 to 8 days after application).
as §2

[3] = test system: Puccinia recondita f. Sp. Tritici; assay: Puccinia recondita f. sp. tritici / wheat / leaf disc preventative (brown rust); format: in vivo; conditions: foliar, 168 h, 200 ppm in the applied formulation, wheat leaf segments cv. Kanzler, preventative, inoculated 1 day after application, assessed 7 to 9 days after application, vs untreated, read-out: disease control
Procedure, shortened: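 Preventative leaf-segment test: spray application of diluted formulated compound on wheat cv. Kanzler, spore inoculation after 1 day. Percent control relative to untreated segments rated 7 to 9 days post-application, with incubation at 19° C, 75% relative humidity, 12 h photoperiod.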

Cc1ccc(-c2nnnn2Cc2ccc(-c3noc(C(F)(F)F)n3)cc2)cc1 [Compound 1.201, 3-[4-[[5-(p-tolyl)tetrazol-1-yl]methyl]phenyl]-5-(trifluoromethyl)-1,2,4-oxadiazole]
pest or weed control at 200 ppm (Phakopsora pachyrhizi): ≥ 80%

CCOC(=O)c1cc(C2CC2)nn1Cc1ccc(-c2noc(C(F)(F)F)n2)cc1 [Compound 1.187, ethyl 5-cyclopropyl-2-[[4-[5-(trifluoromethyl)-1,2,4-oxadiazol-3-yl]phenyl]methyl]pyrazole-3-carboxylate]
pest or weed control at 200 ppm (Phakopsora pachyrhizi): ≥ 80%

FC(F)(F)c1cc(Cl)c2nnn(Cc3ccc(-c4noc(C(F)(F)F)n4)cc3)c2c1 [Compound 1.195, 3-[4-[[4-chloro-6-(trifluoromethyl)benzotriazol-1-yl]methyl]phenyl]-5-(trifluoromethyl)-1,2,4-oxadiazole]
pest or weed control at 200 ppm (Phakopsora pachyrhizi): ≥ 80%

FC(F)(F)c1nc(-c2ccc(Cn3cc(I)cn3)nc2)no1 [Compound 1.144, 3-[6-[(4-iodopyrazol-1-yl)methyl]-3-pyridyl]-5-(trifluoromethyl)-1,2,4-oxadiazole]
inhibition of growth at 20 ppm [1]: ≥ 80% | pest or weed control at 200 ppm [2]: ≥ 80% | pest or weed control at 200 ppm [3]: ≥ 80%

CCOC(=O)c1c(C)ncn1Cc1ccc(-c2noc(C(F)(F)F)n2)cc1 [Compound 1.80, ethyl 5-methyl-3-[[4-[5-(trifluoromethyl)-1,2,4-oxadiazol-3-yl]phenyl]methyl]imidazole-4-carboxylate]
inhibition of growth at 20 ppm [1]: ≥ 80% | pest or weed control at 200 ppm [2]: ≥ 80% | pest or weed control at 200 ppm [3]: ≥ 80%

FC(F)(F)c1nc(-c2ccc(Cn3nnc(-c4ccccc4Br)n3)cc2)no1 [Compound 1.153, 3-[4-[[5-(2-bromophenyl)tetrazol-2-yl]methyl]phenyl]-5-(trifluoromethyl)-1,2,4-oxadiazole]
pest or weed control at 200 ppm (Phakopsora pachyrhizi): ≥ 80%

N#Cc1ncn(Cc2ccc(-c3noc(C(F)(F)F)n3)cn2)c1C#N [Compound 1.135, 1-[[5-[5-(trifluoromethyl)-1,2,4-oxadiazol-3-yl]-2-pyridyl]methyl]imidazole-4,5-dicarbonitrile]
inhibition of growth at 20 ppm [1]: ≥ 80% | pest or weed control at 200 ppm [2]: ≥ 80% | pest or weed control at 200 ppm [3]: ≥ 80%

FC(F)(F)c1nc(-c2ccc(Cn3nnc4cc(Cl)c(Oc5ccc6c(c5)OCO6)cc43)cc2)no1 [Compound 1.177, 3-[4-[[6-(1,3-benzodioxol-5-yloxy)-5-chloro-benzotriazol-1-yl]methyl]phenyl]-5-(trifluoromethyl)-1,2,4-oxadiazole]
pest or weed control at 200 ppm (Phakopsora pachyrhizi): ≥ 80%

FC(F)(F)c1nc(-c2ccc(Cn3nnnc3-c3ccc(Cl)cc3)cc2)no1 [Compound 1.230, 3-[4-[[5-(4-chlorophenyl)tetrazol-1-yl]methyl]phenyl]-5-(trifluoromethyl)-1,2,4-oxadiazole]
pest or weed control at 200 ppm (Phakopsora pachyrhizi): ≥ 80%

FC(F)(F)c1nc(-c2ccc(Cn3cc(I)cn3)cc2)no1 [Compound 1.44, 3-[4-[(4-iodopyrazol-1-yl)methyl]phenyl]-5-(trifluoromethyl)-1,2,4-oxadiazole]
inhibition of growth at 20 ppm [1]: ≥ 80% | pest or weed control at 200 ppm [2]: ≥ 80% | pest or weed control at 200 ppm [3]: ≥ 80%

Fc1cc(-c2noc(C(F)(F)F)n2)ccc1Cn1cc(Cl)cn1 [Compound 1.128, 3-[4-[(4-chloropyrazol-1-yl)methyl]-3-fluoro-phenyl]-5-(trifluoromethyl)-1,2,4-oxadiazole]
inhibition of growth at 20 ppm [1]: ≥ 80% | pest or weed control at 200 ppm [2]: ≥ 80% | pest or weed control at 200 ppm [3]: ≥ 80%

FC(F)(F)c1cnn(Cc2ccc(-c3noc(C(F)(F)F)n3)cc2)c1 [Compound 1.55, 5-(trifluoromethyl)-3-[4-[[4-(trifluoromethyl)pyrazol-1-yl]methyl]phenyl]-1,2,4-oxadiazole]
inhibition of growth at 20 ppm [1]: ≥ 80% | pest or weed control at 200 ppm [2]: ≥ 80% | pest or weed control at 200 ppm [3]: ≥ 80%

O=Cc1cccn1Cc1ccc(-c2noc(C(F)(F)F)n2)cc1 [Compound 1.62, 1-[[4-[5-(trifluoromethyl)-1,2,4-oxadiazol-3-yl]phenyl]methyl]pyrrole-2-carbaldehyde]
inhibition of growth at 20 ppm [1]: ≥ 80% | pest or weed control at 200 ppm [2]: ≥ 80% | pest or weed control at 200 ppm [3]: ≥ 80%
